Results: US12139499B2, “Heteroaryl compounds for treating Huntington's disease” (PTC THERAPEUTICS, INC., priority 2018, dated 2024)

system: Endogenous Huntingtin Protein; experiment: Endogenous Huntingtin Protein Assay (ELISA-based MSD electrochemiluminescence); type: cell-based; conditions: Table 1
Description: Compounds of Formula (I) or Formula (II) were tested using the Meso Scale Discovery (MSD) Assay provided in International Application No. PCT/US2016/066042, filed on Dec. 11, 2016 and claiming priority to U.S. Provisional Application 62/265,652 filed on Dec. 10, 2015, the entire contents of which are incorporated herein by reference.
The Endogenous Huntingtin Protein assay used in Example 1 was developed using the ELISA-based MSD electrochemiluminescence assay platform.
Endogenous Huntingtin Protein Assay
Meso Scale Discovery (MSD) 96-well or 384-well plates were coated overnight at 4° C. with MW1 (expanded polyglutamine) or MAB2166 monoclonal antibody (for capture) at a concentration of 1 μg/mL in PBS (30 μL per well). Plates were then washed three times with 300 μL wash buffer (0.05% Tween-20 in PBS) and blocked (100 μL blocking buffer; 5% BSA in PBS) for 4-5 hours at room temperature with rotational shaking and then washed three times with wash buffer.
Samples (25 μL) were transferred to the antibody-coated MSD plate and incubated overnight at 4° C. After removal of the lysates, the plate was washed three times with wash buffer, and 25 μL of #5656S (Cell signaling; rabbit monoclonal) secondary antibody (diluted to 0.25 μg/mL in 0.05% Tween-20 in blocking buffer) was added to each well and incubated with shaking for 1 Hour at room temperature. Following incubation with the secondary antibody, the wells were rinsed with wash buffer after which 25 μL of goat anti-rabbit SULFO TAG secondary detection antibody (required aspect of the MSD system) (diluted to 0.25 μg/mL in 0.05% Tween-20 in blocking buffer) was added to each well and incubated with shaking for 1 hour at room temperature. After rinsing three times with wash buffer, 150 μL of read buffer T with surfactant (MSD) were added to each empty well, and the plate was imaged on a SI 6000 imager (MSD) according to manufacturers' instructions provided for 96- or 384-well plates.

| IC50 [nM] | Compound |
| --- | --- |
| ≤ 100 | Cc1nc2ccc(-c3cc(F)c4nc(C5CCNCC5)sc4c3)cc2o1 [Compound 70, 6-[4-fluoro-2-(piperidin-4-yl)-1,3-benzothiazol-6-yl]-2-methyl-1,3-benzoxazole] |
| ≤ 100 | Cn1cc2cc(-c3cc(F)c4nc(C5CCNCC5)sc4c3)ccc2n1 [Compound 73, 4-fluoro-6-(2-methyl-2H-indazol-5-yl)-2-(piperidin-4-yl)-1,3-benzothiazole] |
| ≤ 100 | Cn1cc2cc(-c3cc4sc(C5CCNCC5)nc4cn3)cc(C#N)c2n1 [Compound 74, 2-methyl-5-[2-(piperidin-4-yl)[1,3]thiazolo[4,5-c]pyridin-6-yl]-2H-indazole-7-carbonitrile] |
| 100 to 500 | CCc1cc(-c2cc3sc(C4CCNCC4)nc3cn2)cc2cn(C)nc12 [Compound 75, 6-(7-ethyl-2-methyl-2H-indazol-5-yl)-2-(piperidin-4-yl)[1,3]thiazolo[4,5-c]pyridine] |
| 100 to 500 | Cn1cc2cc(-c3cc4sc(C5CCNCC5)nc4cn3)cc(F)c2n1 [Compound 76, 6-(7-fluoro-2-methyl-2H-indazol-5-yl)-2-(piperidin-4-yl)[1,3]thiazolo[4,5-c]pyridine] |
| 100 to 500 | Cc1cn2cc(-c3cc4sc(C5CCNCC5)nc4cn3)ccc2n1 [Compound 77, 6-(2-methylimidazo[1,2-a]pyridin-6-yl)-2-(piperidin-4-yl)[1,3]thiazolo[4,5-c]pyridine] |
| 500 to 1000 | Fc1cc(-c2ccc3[nH]ncc3n2)cc2sc(C3CCNCC3)nc12 [Compound 78, 5-[4-fluoro-2-(piperidin-4-yl)-1,3-benzothiazol-6-yl]-1H-pyrazolo[4,3-b]pyridine] |
| ≤ 100 | Cn1cc2nc(-c3cc(F)c4nc(C5CCNCC5)sc4c3)ccc2n1 [Compound 79, 5-[4-fluoro-2-(piperidin-4-yl)-1,3-benzothiazol-6-yl]-2-methyl-2H-pyrazolo[4,3-b]pyridine] |
| 100 to 500 | Cc1cn2cc(-c3ccc4nc(C5CCNCC5)sc4c3)ccc2n1 [Compound 82, 6-(2-methylimidazo[1,2-a]pyridin-6-yl)-2-(piperidin-4-yl)-1,3-benzothiazole] |
| ≤ 100 | Cn1cc2cc(-c3ccc4nc(C5CCNCC5)sc4c3)cc(F)c2n1 [Compound 83, 6-(7-fluoro-2-methyl-2H-indazol-5-yl)-2-(piperidin-4-yl)-1,3-benzothiazole] |
| ≤ 100 | Cn1cc2cc(-c3ccc4nc(C5CCNCC5)sc4c3)cc(C#N)c2n1 [Compound 84, 2-methyl-5-[2-(piperidin-4-yl)-1,3-benzothiazol-6-yl]-2H-indazole-7-carbonitrile] |
| 100 to 500 | CCc1cc(-c2ccc3nc(C4CCNCC4)sc3c2)cc2cn(C)nc12 [Compound 85, 6-(7-ethyl-2-methyl-2H-indazol-5-yl)-2-(piperidin-4-yl)-1,3-benzothiazole] |

| Compound | IC50 [nM] |
| --- | --- |
| Cc1cn2cc(-c3cc(F)c4nc(C5=CCNCC5)sc4c3)cc(C)c2n1 [Compound 71, 6-(2,8-dimethylimidazo[1,2-a]pyridin-6-yl)-4-fluoro-2-(1,2,3,6-tetrahydropyridin-4-yl)-1,3-benzothiazole] | 100 to 500 |
| Cn1cc2cc(-c3cc(F)c4nc(C5=CCNCC5)sc4c3)ccc2n1 [Compound 72, 4-fluoro-6-(2-methyl-2H-indazol-5-yl)-2-(1,2,3,6-tetrahydropyridin-4-yl)-1,3-benzothiazole] | 100 to 500 |
| CN(c1nc2ccc(-c3cc(C4CC4)c4nn(C)cc4c3)cc2s1)C1CC(C)(C)NC(C)(C)C1 [Compound 80, 6-(7-cyclopropyl-2-methyl-2H-indazol-5-yl)-N-methyl-N-(2,2,6,6-tetramethylpiperidin-4-yl)-1,3-benzothiazol-2-amine] | 1000 to 3000 |
| CC1CC(N(C)c2nc3ccc(-c4ccc5nn(C)cc5c4)cc3s2)CCN1 (stereo not shown) [Compound 81, N-methyl-6-(2-methyl-2H-indazol-5-yl)-N-(2-methylpiperidin-4-yl)-1,3-benzothiazol-2-amine] | 100 to 500 |
